Measured values: a melting point compilation (Tetko et al.; mined from patent text by program, amines drawn as free bases though some values may be those of a salt)

Row | melting point [°C] | Compound
1 | 161 to 162 | CCCCN(CCCC)c1ccc(C=CC=Cc2ccc(C=CC3=C(C#N)C(=C(C#N)C#N)OC3(C)C(F)(F)F)s2)c(OC)c1 (stereo not given)
2 | 260 to 263 | N#CCCNC(=O)Nc1cc(N2CC(c3ccccc3)CC2=O)ccn1 (stereo not given)
3 | 150 to 153 | O=C(O)C=Cc1ccc(-c2cnc(CSCCOc3ccccc3)o2)cc1
4 | 92 to 93 | COc1ccc(C)c2c1C(C=O)C1CCCCC21 (stereo not given)
5 | 83 | CCCCCCCCCCc1cnc(-c2ccc3c(c2)C(=O)C(CCCCCCCC)C3)nc1 (stereo not given)
6 | 35.5 to 36 | FC(F)(F)c1csc(I)n1
7 | 142 to 144 | Cc1cc(SCc2ccc3cn(-c4ccc(C(F)(F)F)cc4)nc3c2)ccc1OCC(=O)O
8 | 94.7 | O=C1NCCCN1CCCN(Cc1ccccc1)CC1CCc2ccccc2O1 (stereo not given)
9 | 183 to 184 | CSc1nn2c(O)cc(C)nc2c1S(=O)(=O)c1ccc(C(C)C)cc1
10 | 136 to 137 | CCOC(=O)C(CC(=O)c1ccc2cc(OC)ccc2c1)C(=O)c1ccccc1 (stereo not given)
11 | 112 to 114 | O=C(NCc1ccccc1)Oc1ccc2c(ccn2Cc2ccncc2)c1
12 | 212 to 213 | CC1(C)OC(=O)N(c2cccc(C#CC#N)c2)c2ccccc21
13 | 195 to 196 | CC1(c2nn(-c3ccc(N)cc3Cl)c(=O)o2)CC1
14 | 143 to 145 | CCn1ncc(-c2ccc3c(c2)c(C2=CCN(CCN4CCNC4=O)CC2)cn3-c2ccc(F)cc2)n1
15 | 54 to 56 | CCCCCCCCCCCCCCCCC12CCC3=C(CCc4cc(OC)ccc43)C1CCC2=O (stereo not given)
16 | 42 to 44 | CCc1cc(Nc2ccccc2)cc(CC)c1N
17 | 98.3 to 98.4 | CCCN(CCC)C1COc2cccc(C(=O)c3ccccc3F)c2C1 (stereo not given)
18 | 68 to 70 | C[C@H]1CN(c2ccccn2)[C@@H](C)CN1C1=c2ccccc2=NCN1c1ccccc1 (relative stereo)
19 | 72 to 76 | CS(=O)(=O)c1ccc(C(=O)C2C(=O)CCCC2=O)c(Cl)c1C1=NOC(Cc2ccccc2)C1 (stereo not given)
20 | 228 | COc1ccc(-c2nc(C(F)(F)F)c(Br)[nH]2)cc1Cl
21 | 191 | COC(=O)C1=C(O)c2ccc(F)cc2S(=O)(=O)N1C
22 | 147 to 149 | Cc1nc2c(OCc3c(Cl)ccc(N(C)C(=O)CNC(N)=O)c3Cl)cccn2c1Br
23 | 308 to 310 | O=C(O)COc1ccc(Nc2nccc(-c3ccncc3)n2)cc1

Row | melting point [°C] | Compound
24 | 102 to 104 | COC(=O)C(C)OC(=O)c1cc(-n2c(=O)cc(C(F)(F)F)n(C)c2=O)c(F)cc1Cl (stereo not given)
25 | 233 to 234 | O=C(O)c1ccc(-c2nc(-c3ccc(C(F)(F)F)cc3)no2)c([N+](=O)[O-])c1
26 | 140 to 149 | O=S(=O)(CC1CC1)c1nc[nH]n1
27 | 102 to 108 | CCOC(=O)/C(=N\O)N1N=C(N)C(Cc2ccccc2)C1=O (stereo not given)
28 | 125 to 126 | CCc1ccc2c(c1)CC(=O)N2c1c(C)cccc1Cl
29 | 122 | COCOc1cc(C(=O)O)ccc1-c1ccc(-c2ccccc2)c(-c2ccc3c(c2)C(C)(C)CCC3(C)C)c1
30 | 171 to 172 | CCCCN(CCCC)c1ccc(C(=O)c2ccccc2C(=O)O)cc1
31 | 122 to 123 | CCOC1CC(n2cc(CC)c(=O)[nH]c2=O)OC1CN (stereo not given)
32 | 75 to 76 | CCOC(=O)c1ccc(CCN2CCN(Cc3ccc(OC)cc3)CC2)cc1
33 | 134 to 138 | CCC(C)(NC(=O)c1cc(Cl)c(N)c(Cl)c1)C(=O)CCl (stereo not given)
34 | 211 to 213 | Cn1c(Cl)nc2c3ncc(Cl)cc3ccc21
35 | 231 to 234 | O=C(O)c1ccc(NC(=O)[C@H](CO)NS(=O)(=O)c2ccc(Cl)cc2)cc1
36 | 136 to 140 | COC(=O)c1ccc(CN2C(=O)C3(COc4cc5c(cc43)CCO5)c3ccccc32)cc1 (stereo not given)
37 | 145 to 146 | CS(=O)(=O)c1ccc(C(=O)O)c(Cl)c1C1=NOCC1
38 | 144 to 145 | CC(C)(C)OC(=O)N1Cc2c(Br)sc(Br)c2C1
39 | 103 | C=C[C@@H](C[C@H](O)[C@H](CC1CCCCC1)NC(=O)[C@H](Cc1c[nH]cn1)NC(=O)[C@@H](CC(=O)N1CCC(C(=O)OCC)CC1)Cc1ccccc1)C(C)C
40 | > 240 | COc1ccc(C(=O)Nc2ccc(F)c(F)c2)cc1NCc1ccc(C(=O)O)cc1
41 | 71 to 72 | COC(=O)c1cc(OC)c(N(C)C)c(OC)c1
42 | 290 | O=C1Nc2cc(Cl)ccc2C(=O)C1c1coc2ccccc12 (stereo not given)
43 | 203 to 204 | COc1ncc(F)c2nc(S(=O)(=O)Nc3c(F)cc(Cl)cc3F)nn12
44 | 200 to 205 | CCCCNc1nc(C)c(C(=O)c2ccc(N)c([N+](=O)[O-])c2)s1
45 | 205 to 209 | O=C(Nc1ccc(-n2nc(C(F)(F)F)cc2C2CC2)cc1)c1ccc2nccnc2c1
46 | 198 | CS(=O)c1ccc(-c2nn(Cc3ccccc3)c(=O)cc2-c2ccc(F)cc2)cc1 (stereo not given)

Row | melting point [°C] | Compound
47 | 172 to 173 | O=C(NC1CCCCC1)c1ccc2nonc2c1
48 | 135 to 137 | CC(Cc1ccc(Oc2cc(Oc3ccccc3)nc(N3CCN(Cc4ccccc4)CC3)n2)cc1)(Oc1ccccc1)C(=O)O (stereo not given)
49 | 171 to 173 | CCN1C(=O)C(C)(C)C(=O)N(C)c2cc(CCN(CCn3cc(C)c4occc4c3=O)Cc3cc(C)nn3C)ccc21
50 | 189 to 190 | CC(C)n1c(=O)nc(-c2ccccc2)c2cc3c(cc21)OCO3
51 | 177 to 179 | COc1ccc(-c2cn3ccc4ccccc4c3n2)cc1
52 | 170 to 172 | COC(=O)CC[C@H](NC(=O)c1ccc(CCn2cnc3nccc-3c2O)cc1)C(=O)OC
53 | 107 to 109 | CCOC(=O)c1cc2cc(C)sc2[nH]1
54 | 99 | CCCCCCc1cnc(-c2ccc(OC[C@H]3CC[C@H](CCCC)CC3)cc2)nc1
55 | 134 to 137 | CCCc1ncc(CO)c(NCc2ccc(-c3ccccc3-c3nnnn3C(c3ccccc3)(c3ccccc3)c3ccccc3)cc2)n1
56 | 143 to 144 | CCCCS(=O)(=O)Oc1cn(C)c2ccccc2c1=O
57 | 167 to 169 | O=Cc1ccc(NCc2ccc(F)cc2)cn1
58 | 114 to 116 | CN1CCCCC1CCn1nc(-c2c(-c3ccccc3)nn3ccccc23)ccc1=O (stereo not given)
59 | 202 to 204 | CC(C)c1nc(C(C)C)c(C(O)c2ccccc2)c(-c2ccc(F)cc2)c1CO (stereo not given)
60 | 205 | CCCCn1ccc(-c2ccc(Oc3cc(C)nc(C)c3)c(F)c2)c(C#N)c1=O
61 | 102 to 108 | CC(C)CCC(O)C(CC1CCCCC1)NC(=O)C(Cc1c[nH]cn1)N(C)C(=O)C(Cc1ccccc1)NC(=O)N1CCOCC1 (stereo not given)
62 | 118 | Cc1nc(Cl)c(SC(F)F)n1-c1c(Cl)cc(C(F)(F)F)cc1Cl
63 | 122 | CCCCOCCOC(=O)C1=C(C)NN=C(CC)C1c1cccc([N+](=O)[O-])c1 (stereo not given)
64 | 219 to 225 | CON=Cc1sc(-c2ccc(O)cc2)c(C)c1-c1ccc(O)cc1
65 | 205 to 206 | COc1ccc(S(=O)(=O)Nc2c(/C=C/c3ccncc3)cccc2OC)cc1
66 | 126 to 128 | COc1ccc(Cn2c(C)cc3cnnc(Cl)c32)cc1
67 | 135 | CCN1CCc2ccc(Nc3ncc(Cl)c(NCCCC(=O)NC)n3)cc2CC1
68 | 58 to 62.5 | Cc1ccc(S(=O)(=O)N(F)CC(C)(C)C)cc1
69 | 137 | O=C(O)C[C@@H](c1ccccc1)c1c[nH]c2cc(OCCCNc3ccccn3)ccc12

Row | melting point [°C] | Compound
70 | 38 to 41 | CCCCCc1c(C(=O)OCC)oc2cc(OC)ccc12
71 | 219 | COc1cc(F)c(-c2ccc3nc(C(=O)NC(Cc4ccc(OCc5ccccc5)cc4)C(=O)O)cn3c2)c(F)c1 (stereo not given)
72 | 92 | CC(=O)OC1COC(Br)C(OC(C)=O)C1OC(C)=O (stereo not given)
73 | 78 to 80 | COc1cc(CCI)cc2c1OCO2
74 | 167 to 168 | CCCc1c(O)c(C(C)=O)cc(I)c1OCc1ccc(C(=O)O)cc1
75 | 173 to 174 | Clc1c(OCCN2CCCCC2)ccc2cc3ccc(OCCN4CCCCC4)c(Cl)c3nc12
76 | 141 to 143 | Cc1c(-c2ccccc2)nn(C(C)C(=O)N(C)C)c1[N+](=O)[O-] (stereo not given)
77 | 96 | c1ccc(COc2ccc(OCC3CC3)cc2)cc1
78 | 181 to 183 | NC(=O)[C@H]1CN(c2cc(F)c(N3CCOCC3)c(F)c2)C(=O)O1
79 | 157 to 159 | CO/N=C(\C(=O)N[C@@H]1C(=O)N[C@@H]1COC(=O)/C(=N\OC)c1csc(NC(=O)CCl)n1)c1csc(NC(=O)CCl)n1 (relative stereo)
80 | 122 to 124 | NC(=O)c1[nH]cnc1OC(=O)c1ccccc1C(=O)OCc1ccccc1
81 | 289 to 292 | N#Cc1coc2ccc3ccc(O)cc3c2c1=O
82 | 184 to 188 | O=C(NC1CCN(Cc2ccccc2)CC1)c1ccc(NCc2ccnc3ccccc23)cc1
83 | 110 to 112 | COc1ccc(C2=NN(C)C(=O)[C@H]3CCCC[C@@H]23)cc1OC (relative stereo)
84 | 99 to 101 | COc1c2c(c(OC)c(OC)c1OC)CCC(CCn1nnc3ccccc31)CC2
85 | 87 | CCCCc1cnc(-c2ccc(C#N)c(F)c2)nc1
86 | 92 to 94 | CC(C)(O)c1ccc(CNC(=O)c2cccnc2Oc2ccc(F)cc2F)cc1
87 | 230 to 231 | CSc1cc2ncnc(Nc3cccc(C)c3)c2cc1[N+](=O)[O-]
88 | 164 to 165 | CC(=O)N1CCN(C)C1C(c1ccccc1)c1ccccc1 (stereo not given)
89 | 176 | CC(=O)NCc1ccc(CC(=NNc2ccc(Br)cn2)c2ccccc2)o1

Row | Compound | melting point [°C]
90 | O=C(c1ccccc1)c1cc([N+](=O)[O-])ccc1-n1nc(CCl)cc1CCl | 152 to 155
91 | CCCc1c(C(=O)C2CCCC2)c2ccc(C(N)=O)cc2n1Cc1ccccc1Cl | 202
92 | COc1ccc(C2(CCN3CCC(C(=O)c4nc5ccccc5n4Cc4ccc(F)cc4)CC3)CCN(C(=O)c3ccccc3)C2)cc1OC (stereo not given) | 42 to 44
93 | COc1ccccc1C1=CCN(C[C@@H](CC2CCCCC2)NC(=O)C2(C)CCCCC2)CC1 | 93 to 95
94 | CC1CCCC(C)N1Cc1nc(-c2ncn3c2C2CCN2C(=O)c2c(Cl)cccc2-3)no1 (stereo not given) | 233 to 236
95 | Nc1ccc2[nH]c(=O)ccc2c1 | 116 to 118
